{"source": "EPA's ToxValDB 9.5 (doi:10.2903/j.efsa.2014.3764)", "key": {"[1]": {"system": "Apis mellifera", "settings": "acute, duration: 48 hours, mortality"}, "[2]": {"system": "Tagia sp.", "settings": "acute; duration: 14 days; mortality"}, "[3]": {"system": "Daphnia magna", "settings": "chronic/long-term; duration: 21 days; mortality"}, "[4]": {"system": "Canidae", "settings": "oral, Dog Other, clinical chemistry"}, "[5]": {"system": "Cyprinus carpio", "settings": "acute; duration: 96 hours; mortality"}, "[6]": {"system": "Rattus norvegicus"}, "[7]": {"system": "Oncorhynchus mykiss", "settings": "chronic/long-term; duration: 87 days; mortality"}, "[8]": {"system": "Anas platyrhynchos", "settings": "oral, feed"}, "[9]": {"system": "Colinus virginianus", "settings": "acute; oral; mortality"}, "[10]": {"system": "Aphidius rhopalosiphi", "assay": "LR50; higher = less toxic", "settings": "acute; duration: 48 hours; mortality"}}, "data": [{"smiles": "CCS(=O)(=O)c1nc2ccccn2c1S(=O)(=O)NC(=O)Nc1nc(OC)cc(OC)n1", "note": "[Sulfosulfuron]", "values": [{"measurement": "LD50", "setting": "[1]; dermal", "value": "> 25", "unit": "µg/piece"}, {"measurement": "LD50", "setting": "[1]; oral, unspecified", "value": "> 30", "unit": "µg/piece"}, {"measurement": "LC50", "setting": "[2]", "value": "> 848", "unit": "mg/kg"}, {"measurement": "NOEC", "setting": "[3]", "value": 102, "unit": "mg/L"}, {"measurement": "NOAEL", "setting": "[4]; chronic, duration: 1 years", "value": 100, "unit": "mg/kg-day"}, {"measurement": "NOAEL", "setting": "[4]; subchronic, duration: 90 days", "value": 100, "unit": "mg/kg-day"}, {"measurement": "LC50", "setting": "[5]", "value": "> 91", "unit": "µg/mL"}, {"measurement": "LD50", "setting": "[6]; acute, oral, mortality", "value": "> 5000", "unit": "mg/kg-day"}, {"measurement": "NOAEL", "setting": "[6]; chronic, duration: 2 years, histopathology: nonneoplastic", "value": 24.4, "unit": "mg/kg-day"}, {"measurement": "NOAEL", "setting": "[6]; reproduction developmental, duration: 22 months, oral, diet, body weight", "value": 312, "unit": "mg/kg-day"}, {"measurement": "NOEC", "setting": "[7]", "value": 100, "unit": "mg/L"}, {"measurement": "NOEL", "setting": "[8]; reproductive", "value": 33.7, "unit": "mg/kg-day"}, {"measurement": "LD50", "setting": "[8]; short-term, mortality", "value": "> 1350", "unit": "mg/kg-day"}, {"measurement": "LD50", "setting": "[9]", "value": "> 2250", "unit": "mg/kg-day"}, {"measurement": "LR50", "setting": "[10]", "value": "> 29.7", "unit": "g/ha"}]}]}
